In patent publication US20240307283A1, “COMPOSITIONS AND METHODS FOR DECREASING PIGMENTATION” (The General Hospital Corporation, priority 2021, published 2024):

Tests used:
murine Melan-A cells = test: Melanin content of Melan-A cells with NNT inhibitors; type: cell-based, mouse; details: 2 mM, FIG. 3A
Protocol: Murine Melan-A (Bennett et al., 1987) cells were obtained from the Wellcome Trust Functional Genomics Cell Bank. Melan-A cells were grown in RPMI 1640 supplemented with 10% FBS or FetalPlex (Gemini Bio-Products, #100-602), 100,000 U/L penicillin, 100 mg/L streptomycin sulphate, 100× Glutamax, and 200 nM TPA.
(§1) In vitro culture with NNT inhibitors: 2,3-Butanedione 97% (2,3 BD) (Sigma Aldrich, #B85307) (1 μM, 10 μM, 100 μM, 2 mM), N,N-Dicyclohexylcarbodiimide (DCC) (Sigma Aldrich, #D80002) (1 mM, 2 mM, 10 mM), and Palmitoyl coenzyme A lithium salt (Sigma Aldrich, #P9716) (10 μM, 2 mM) were reconstituted with DMSO (American Type Culture Collection, 4-X).
(§2) Melanin quantification: Equal numbers of cells were plated in 6-well plates. The cells were then harvested 72-96 hours post siRNA or NNT inhibitors compounds, as indicated in the legends, pelleted, washed in PBS and counted. 10^6 cells were used for measurement of protein concentration with the Pierce BCA protein assay (Thermo Fisher Scientific, #23225) and 10^6 cells were resuspended in 60 μl of 1 N NaOH solution and incubated at 60° C. for 2 h or until the melanin was completely dissolved. After cooling down to room temperature, samples were centrifuged at 500×g for 10 min and the supernatants were loaded onto a 96-well plate. The melanin content was determined by measuring the absorbance at 405 nm on an Envision plate reader, compared with a melanin standard (0 to 50 μg/ml; Sigma Aldrich, #M8631). Melanin content was expressed as micrograms per milligram of protein.

[1] = system: primary human melanocytes; test: Intracellular melanin content of primary human melanocytes with NNT inhibitors; type: cell-based; details: FIG. 10D
Text: Primary human melanocytes were isolated from normal discarded foreskins and were established in TIVA medium as described previously (Khaled et al., 2010) or in Medium 254 (Life Technologies, #M254500) (Allouche et al., 2015). Human melanoma cell line UACC257 (sex unspecified) was obtained from the National Cancer Institute (NCI), Frederick Cancer Division of Cancer Treatment and Diagnosis (DCTD) Tumor Cell Line Repository. SK-MEL-30 ([…]) human melanoma cell line was from Memorial Sloan Kettering Cancer Center. Both melanoma cell lines have been authenticated by our lab using ATCC's STR profiling service. UACC257 and SK-MEL-30 cells were cultured in DMEM and RPMI medium (Life Technologies, #11875119) respectively, supplemented with 10% fetal bovine serum and 1% penicillin/streptomycin/L-glutamine in a humidified atmosphere of 95% air and 5% CO2 at 37° C.
as §1, §2

human skin = test: UVB-induced DNA damage (CPD, γ-H2AX) in human skin; type: cell-based; details: 50 mM for 5 days
Protocol: Skin samples considered surgical waste were obtained de-identified from healthy donors (IRB #2013P000093) undergoing reconstructive surgery, according to institutional regulations. Full thickness human abdominal skin explants were cultured in petri dishes with a solid phase and liquid phase phenol red free DMEM medium containing 20% penicillin/streptomycin/glutamine, 5% fungizone (Gibco), and 10% fetal bovine serum. Compounds were applied strictly on top of the explants, making sure no drip occurred into the underlying media. For UV irradiation experiments, a UV lamp (UV Products) was used at 1000 mJ/cm^2 UVB. For immunofluorescence, paraffin sections were deparaffinized by xylene and rehydrated gradually with ethanol to distilled water. Sections were submerged in 0.01 M citrate buffer and boiled for 10 min for retrieval of antigen. The sections were washed with TBST (0.1% Tween 20) and blocked with protein blocking solution (Agilent, #X090930-2) for 1 h at room temperature before application of primary antibody [1:100 diluted in Antibody Diluent (DAKO, #S3022)] and incubation overnight at 4° C. The following day, sections were washed with TBST three times and incubated with secondary antibody Alexa Fluor 647 goat anti-mouse IgG (G+L) (ThermoFisher Scientific, #A-21236), Alexa Fluor 594 F(ab)2 fragment of goat anti-rabbit IgG (G+L) (ThermoFisher Scientific, #A-11072), or Alexa Fluor 555 goat anti-rabbit IgG (ThermoFisher Scientific, #A-21428). After washing, the tissue sections were cover-slipped with mounting medium (SlowFade® Gold Antifade Reagent with DAPI, ThermoFisher Scientific, #S36939). MaxBlock Autofluorescence Reducing Reagent Kit (MaxVision Biosciences, #MB-L) was used to quench skin tissue autofluorescence according to the reagent instructions. […]

**Q.** How did the melanin content (murine Melan-A cells) turn out when `CC(=O)C(C)=O` [2,3BD, 2,3-Butanedione] was run?
**A.** Its melanin content is “increased melanin content”.

**Q.** What about the intracellular melanin content ([1]; 2.3 BD 2 mM for 72 hours) of the same compound?
**A.** The intracellular melanin content was “significantly increased the intracellular melanin content”.

**Q.** And the “melanin on simultaneous treatment with siNNT” value ([1]; siNNT plus 2,3 BD)?
**A.** Its value is “did not further increase the melanin”.

**Q.** What about the “toxicity by γ-H2AX” value (human skin) of the same compound?
**A.** Its value is “non-toxic”.

**Q.** What about the “UVB-induced CPD formation” value (human skin; skin type 2-3, then 1000 mJ/cm^2 UVB) of the same compound?
**A.** Its value is “protected against formation of UVB-induced CPD”.

**Q.** What about the “UVB-induced γ-H2AX induction” value (human skin; then UVB) of the same compound?
**A.** Its value is “could protect human skin from UVB-induced γ-H2AX induction”.
